Patent US7109354B2, “Thiophene amidines, compositions thereof, and methods of treating complement-mediated diseases and conditions” (3-Dimensional Pharmaceuticals, Inc., priority 2002, dated 2006)
Where “and” joins values, the source holds several entries; their conditions need not be identical. Equal values may be shown once. Where a name gives a salt, the structure may show the parent alone.

Target: T1, Activated human C1s (Homo sapiens, UniProt P09871)
T1 construct: purchased Calbiochem (La Jolla, Calif.)
T1 sequence (P09871 438-688 limits assumed): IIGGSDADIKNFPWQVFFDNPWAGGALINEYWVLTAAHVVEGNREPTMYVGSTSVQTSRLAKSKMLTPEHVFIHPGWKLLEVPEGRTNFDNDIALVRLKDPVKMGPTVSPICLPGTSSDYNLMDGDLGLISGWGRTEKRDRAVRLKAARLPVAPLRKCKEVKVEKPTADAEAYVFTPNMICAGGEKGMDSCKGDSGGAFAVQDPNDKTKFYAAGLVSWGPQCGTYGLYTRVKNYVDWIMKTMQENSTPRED
T1 sequence (P09871 16-437 partner limits assumed): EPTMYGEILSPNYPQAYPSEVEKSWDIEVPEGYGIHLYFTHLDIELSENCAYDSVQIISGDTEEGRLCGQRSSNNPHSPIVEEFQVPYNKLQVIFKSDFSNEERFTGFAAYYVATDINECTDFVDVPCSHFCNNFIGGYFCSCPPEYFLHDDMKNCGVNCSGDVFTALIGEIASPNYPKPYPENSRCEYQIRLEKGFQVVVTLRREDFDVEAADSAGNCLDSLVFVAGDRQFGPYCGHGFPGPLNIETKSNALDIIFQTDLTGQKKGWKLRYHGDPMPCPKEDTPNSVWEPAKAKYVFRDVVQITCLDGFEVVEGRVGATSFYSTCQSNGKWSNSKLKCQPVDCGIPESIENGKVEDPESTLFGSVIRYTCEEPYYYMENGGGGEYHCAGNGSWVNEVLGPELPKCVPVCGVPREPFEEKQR
Assay: In vitro inhibition of C1s (Ki determination, C1s-catalyzed hydrolysis of Z-Gly-Arg-S-Bzl, DTNB readout)
Type: biochemical
Conditions: substrate Z-Gly-Arg-S-Bzl 45 μM, DTNB 200 μM, C1s 2.3 nM, pH 7.5, 37° C., absorbance at 405 nm
Method: Reagents: All buffer salts were obtained from Sigma Chemical Company (St. Louis, Mo.), and were of the highest purity available. DTNB was purchased from Pierce (Rockford, Ill.). Z-Gly-Arg-S-Bzl was purchased from Enzyme Systems Products (Livermore, Calif.). Activated human C1s was purchased from Calbiochem (La Jolla, Calif.).
Test compounds are prepared as a 10 μM solution in DMSO. Dilutions are prepared in DMSO yielding 7 final concentrations encompassing a 700-fold concentration range.
Reactions were initiated by the addition of a 10 μL aliquot of the enzyme, and the absorbance increase at 405 nm is continuously recorded for 15 minutes in a Molecular Devices plate reader. Final DMSO concentration was 4.3%. […] The ratio of the velocity (rate of change in absorbance as a function of time) for a sample containing no test compound is divided by the velocity of a sample containing test compound, and is plotted as a function of test compound concentration. The data are fit to a linear regression, and the value of the slope of the line calculated. The inverse of the slope is the experimentally determined Ki value.

| Ki | SMILES |
| --- | --- |
| 6 to 23 nM | CSc1sc(C(=N)N)cc1S(=O)(=O)c1cccc(-c2ccccc2O)c1 [Example 34, 4-(2′-Hydroxy-biphenyl-3-sulfonyl)-5-methylsulfanyl-thiophene-2-carboxamidine trifluoroacetate] |
| 6 to 23 nM | COc1ccc(-c2cccc(S(=O)(=O)c3cc(C(=N)N)sc3SC)c2)c(OC)c1 [Example 41, 4-(2′,4′-Dimethoxy-biphenyl-3-sulfonyl)-5-methylsulfanyl-thiophene-2-carboxamidine] |
| 6 to 23 nM | COc1ccc(-c2cccc(S(=O)(=O)c3cc(C(=N)N)sc3SC)c2)cc1OC [Example 43, 4-(3′,4′-Dimethoxy-biphenyl-3-sulfonyl)-5-methylsulfanyl-thiophene-2-carboxamidine] |
| 6 to 23 nM | CSc1sc(C(=N)N)cc1S(=O)(=O)c1cccc(-c2cc(Cl)cc(Cl)c2)c1 [Example 46, 4-(3′,5′-Dichloro-biphenyl-3-sulfonyl)-5-methylsulfanyl-thiophene-2-carboxamidine] |
| 6 to 23 nM | CSc1sc(C(=N)N)cc1S(=O)(=O)c1cccc(-c2ccc(C)c([N+](=O)[O-])c2)c1 [Example 51, 4-(4′-Methyl-3′-nitro-biphenyl-3-sulfonyl)-5-methylsulfanyl-thiophene-2-carboxamidine] |
| 6 to 23 nM | CSc1sc(C(=N)N)cc1S(=O)(=O)c1cccc(-c2ccc(Cl)cc2)c1 [Example 53, 4-(4′-Chloro-biphenyl-3-sulfonyl)-5-methylsulfanyl-thiophene-2-carboxamidine] |
| 6 to 23 nM | CSc1sc(C(=N)N)cc1S(=O)(=O)c1cccc(-c2ccc(C(F)(F)F)cc2)c1 [Example 54, 5-Methylsulfanyl-4-(4′-trifluoromethyl-biphenyl-3-sulfonyl)-thiophene-2-carboxamidine] |
| 6 to 23 nM | CSc1sc(C(=N)N)cc1S(=O)(=O)c1cccc(-c2ccc3c(c2)OCO3)c1 [Example 58, 4-(3-Benzo[1,3]dioxol-5-yl-benzenesulfonyl)-5-methylsulfanyl-thiophene-2-carboxamidine] |
| 6 to 23 nM and 6 nM | CSc1sc(C(=N)N)cc1S(=O)(=O)c1cccc(-c2cccc(C=O)c2)c1 [Example 61, 4-(3′-Formyl-biphenyl-3-sulfonyl)-5-methylsulfanyl-thiophene-2-carboxamidine] |
| 6 to 23 nM | CSc1sc(C(=N)N)cc1S(=O)(=O)c1cccc(-c2cccc(CO)c2)c1 [Example 64, 4-(3′-Hydroxymethyl-biphenyl-3-sulfonyl)-5-methylsulfanyl-thiophene-2-carboxamidine] |
| 6 to 23 nM | CSc1sc(C(=N)N)cc1S(=O)(=O)c1cccc(-c2cccc(-c3ccccc3)c2)c1 [Example 65, 5-Methylsulfanyl-4-([1,1′;3′,1″]terphenyl-3-sulfonyl)-thiopbene-2-carboxamidine] |
| 6 to 23 nM | CSc1sc(C(=N)N)cc1S(=O)(=O)c1cccc(-c2ccccc2CO)c1 [Example 68, 4-(2′-Hydroxymethyl-biphenyl-3-sulfonyl)-5-methylsulfanyl-thiophene-2-carboxamidine] |
| 6 to 23 nM | CSc1sc(C(=N)N)cc1S(=O)(=O)c1cccc(-c2ccccc2Cl)c1 [Example 69, 4-(2′-Chloro-biphenyl-3-sulfonyl)-5-methylsulfanyl-thiophene-2-carboxamidine] |
| 6 to 23 nM | CSc1sc(C(=N)N)cc1S(=O)(=O)c1cccc(-c2cccnc2)c1 [Example 70, 5-Methylsulfanyt-4-(3-pyridin-3-yl-benzenesulfonyl)-thiophene-2-carboxamidine] |
| 6 to 23 nM | CSc1sc(C(=N)N)cc1S(=O)(=O)c1cccc(-c2cncnc2)c1 [Example 71, 5-Methylsulfanyl-4-(3-pyrimidin-5-yl-benzenesulfonyl)-thiophene-2-carboxamidine] |

The remaining lines, values behind:

| SMILES | Ki |
| --- | --- |
| CSc1sc(C(=N)N)cc1S(=O)(=O)c1cccc(-c2cccc(O)c2)c1 [Example 35, 4-(3′-Hydroxy-biphenyl-3-sulfonyl)-5-methylsulfanyl-thiophene-2-carboxamidine trifluoroacetate] | 6 to 23 nM |
| CSc1sc(C(=N)N)cc1S(=O)(=O)c1ccc2ccccc2c1 [Example 37, 5-Methylsulfanyl-4-(naphthalene-2-sulfonyl)-thiophene-2-carboxamidine triflouroacetate] | 6 to 23 nM |
| COc1ccc(-c2cccc(S(=O)(=O)c3cc(C(=N)N)sc3SC)c2)cc1 [Example 42, 4-(4′-Methoxy-biphenyl-3-sulfonyl)-5-methylsulfanyl-thiophene-2-carboxamidine] | 6 to 23 nM |
| COc1cccc(-c2cccc(S(=O)(=O)c3cc(C(=N)N)sc3SC)c2)c1 [Example 44, 4-(3′-Methoxy-biphenyl-3-sulfonyl)-5-methylsulfanyl-thiophene-2-carboxamidine] | 6 to 23 nM |
| COc1ccccc1-c1cccc(S(=O)(=O)c2cc(C(=N)N)sc2SC)c1 [Example 45, 4-(2′-Methoxy-biphenyl-3-sulfonyl)-5-methylsulfanyl-thiophene-2-carboxamidine] | 6 to 23 nM |
| CSc1sc(C(=N)N)cc1S(=O)(=O)c1cccc(-c2cc(Cl)ccc2Cl)c1 [Example 47, 4-(2′,5′-Dichloro-biphenyl-3-sulfonyl)-5-methylsulfanyl-thiophene-2-carboxamidine] | 6 to 23 nM |
| CSc1sc(C(=N)N)cc1S(=O)(=O)c1cccc(-c2cc(C(F)(F)F)cc(C(F)(F)F)c2)c1 [Example 48, 4-(3′,5′-Bis-trifluoromethyl-biphenyl-3-sulfonyl)-5-methylsulfanyl-thiophene-2-carboxamidine] | 6 to 23 nM |
| CSc1sc(C(=N)N)cc1S(=O)(=O)c1cccc(-c2cc3ccccc3o2)c1 [Example 49, 4-(3-Benzofuran-2-yl-benzenesulfonyl)-5-methylsulfanyl-thiophene-2-carboxamidine] | 6 to 23 nM |
| CSc1sc(C(=N)N)cc1S(=O)(=O)c1cccc(-c2cc3ccccc3s2)c1 [Example 50, 4-(3-Benzo[b]thiophen-2-yl-benzenesulfonyl)-5-methylsulfanyl-thiophene-2-carboxamidine] | 6 to 23 nM |
| CSc1sc(C(=N)N)cc1S(=O)(=O)c1cccc(-c2ccc(C)cc2)c1 [Example 52, 4-(4′-Methyl-biphenyl-3-sulfonyl)-5-methylsulfanyl-thiophene-2-carboxamidine] | 6 to 23 nM |
| CSc1sc(C(=N)N)cc1S(=O)(=O)c1cccc(-c2ccc(OC(F)(F)F)cc2)c1 [Example 55, 5-Methylsulfanyl-4-(4′-trifluoromethoxy-biphenyl-3-sulfonyl)-thiophene-2-carboxamidine] | 6 to 23 nM |
| CSc1sc(C(=N)N)cc1S(=O)(=O)c1cccc(-c2ccc(Oc3ccccc3)cc2)c1 [Example 56, 5-Methylsulfanyl-4-(4′-phenoxy-biphenyl-3-sulfonyl)-thiophene-2-carboxamidine] | 6 to 23 nM |
| CSc1sc(C(=N)N)cc1S(=O)(=O)c1cccc(-c2ccc3cccnc3c2)c1 [Example 59, 5-Methylsulfanyl-4-(3-quinolin-7-yl-benzenesulfonyl)-thiophene-2-carboxamidine] | 6 to 23 nM |
| CSc1sc(C(=N)N)cc1S(=O)(=O)c1cccc(-c2cccc(C)c2)c1 [Example 60, 4-(3′-methyl-biphenyl-3-sulfonyl)-5-methylsulfanyl-thiophene-2-carboxamidine] | 6 to 23 nM |
| CSc1sc(C(=N)N)cc1S(=O)(=O)c1cccc(-c2cccc(N)c2)c1 [Example 62, 4-(3′-Amino-biphenyl-3-sulfonyl)-5-methylsulfanyl-thiophene-2-carboxamidine] | 6 to 23 nM |
| CSc1sc(C(=N)N)cc1S(=O)(=O)c1cccc(-c2cccc(C(F)(F)F)c2)c1 [Example 63, 5-Methylsulfanyl-4-(3′-trifluoromethyl-biphenyl-3-sulfonyl)-thiophene-2-carboxamidine] | 6 to 23 nM |
| CSc1sc(C(=N)N)cc1S(=O)(=O)c1cccc(-c2cccc3c2oc2ccccc23)c1 [Example 66, 4-(3-Dibenzofuran-4-yl-benzenesulfonyl)-5-methylsulfanyl-thiophene-2-carboxamidine] | 6 to 23 nM |
| CSc1sc(C(=N)N)cc1S(=O)(=O)c1cccc(-c2ccccc2C(F)(F)F)c1 [Example 67, 5-Methylsulfanyl-4-(2′-trifluoromethyl-biphenyl-3-sulfonyl)-thiophene-2-carboxamidine] | 6 to 23 nM |
| CSc1sc(C(=N)N)cc1S(=O)(=O)c1cccc(-c2ccoc2)c1 [Example 72, 4-(3-Furan-3-yl-benzenesulfonyl)-5-methylsulfanyl-thiophene-2-carboxamidine] | 6 to 23 nM |
